Laboratory results taken from ChEMBL document CHEMBL2424579, “Quinazolin-4-one derivatives as selective histone deacetylase-6 inhibitors for the treatment of Alzheimer's disease” (J Med Chem, 2013).
The source made the active and inactive calls. The rule behind the calls is not given here.

Columns and labels:
Histone deacetylase 2 = Histone deacetylase 2 (Homo sapiens, UniProt Q92769); assay: Inhibition of human recombinant HDAC2 expressed in baculovirus/sf9 cells using RHKKAc as substrate
PC-12 [1] = assay: Increase of synaptic activity in rat PC12 cells after 5 days by fluorescence assay; format: functional, cell-based; conditions: PC-12, 120 h
PC-12 [2] = assay: Inhibition of HDAC6 in rat PC12 cells assessed as induction of alpha-tubulin acetylation after 48 hrs by Western blotting analysis; format: cell-based
PC-12 [3] = assay: Induction iof GAP-43 protein expression in rat PC12 cells after 48 hrs by Western blotting analysis; format: functional, cell-based
Histone deacetylase 1 = Histone deacetylase 1 (Homo sapiens, UniProt Q13547); assay: Inhibition of human recombinant HDAC1 expressed in baculovirus/sf9 cells using RHKKAc as substrate
Histone deacetylase 11 = target: T1, Histone deacetylase 11 (Homo sapiens, UniProt Q96DB2); assay: Inhibition of human recombinant HDAC11 expressed in baculovirus/sf9 cells using RHKKAc as substrate
T1 sequence (Q96DB2 whole entry): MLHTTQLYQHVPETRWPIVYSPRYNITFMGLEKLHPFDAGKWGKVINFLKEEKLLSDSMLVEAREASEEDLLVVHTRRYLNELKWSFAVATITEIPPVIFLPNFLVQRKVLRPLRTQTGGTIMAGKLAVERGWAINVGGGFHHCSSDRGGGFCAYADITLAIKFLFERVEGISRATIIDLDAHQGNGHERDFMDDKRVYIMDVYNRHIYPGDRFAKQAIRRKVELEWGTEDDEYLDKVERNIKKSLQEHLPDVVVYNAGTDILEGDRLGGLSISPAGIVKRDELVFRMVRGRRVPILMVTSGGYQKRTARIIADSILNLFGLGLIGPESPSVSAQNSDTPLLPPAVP

[4] = target: T2, Protein deacetylase HDAC6 (Homo sapiens, UniProt Q9UBN7); assay: Inhibition of human recombinant HDAC6 expressed in baculovirus/sf9 cells using RHKKAc as substrate
T2 sequence (Q9UBN7 whole entry): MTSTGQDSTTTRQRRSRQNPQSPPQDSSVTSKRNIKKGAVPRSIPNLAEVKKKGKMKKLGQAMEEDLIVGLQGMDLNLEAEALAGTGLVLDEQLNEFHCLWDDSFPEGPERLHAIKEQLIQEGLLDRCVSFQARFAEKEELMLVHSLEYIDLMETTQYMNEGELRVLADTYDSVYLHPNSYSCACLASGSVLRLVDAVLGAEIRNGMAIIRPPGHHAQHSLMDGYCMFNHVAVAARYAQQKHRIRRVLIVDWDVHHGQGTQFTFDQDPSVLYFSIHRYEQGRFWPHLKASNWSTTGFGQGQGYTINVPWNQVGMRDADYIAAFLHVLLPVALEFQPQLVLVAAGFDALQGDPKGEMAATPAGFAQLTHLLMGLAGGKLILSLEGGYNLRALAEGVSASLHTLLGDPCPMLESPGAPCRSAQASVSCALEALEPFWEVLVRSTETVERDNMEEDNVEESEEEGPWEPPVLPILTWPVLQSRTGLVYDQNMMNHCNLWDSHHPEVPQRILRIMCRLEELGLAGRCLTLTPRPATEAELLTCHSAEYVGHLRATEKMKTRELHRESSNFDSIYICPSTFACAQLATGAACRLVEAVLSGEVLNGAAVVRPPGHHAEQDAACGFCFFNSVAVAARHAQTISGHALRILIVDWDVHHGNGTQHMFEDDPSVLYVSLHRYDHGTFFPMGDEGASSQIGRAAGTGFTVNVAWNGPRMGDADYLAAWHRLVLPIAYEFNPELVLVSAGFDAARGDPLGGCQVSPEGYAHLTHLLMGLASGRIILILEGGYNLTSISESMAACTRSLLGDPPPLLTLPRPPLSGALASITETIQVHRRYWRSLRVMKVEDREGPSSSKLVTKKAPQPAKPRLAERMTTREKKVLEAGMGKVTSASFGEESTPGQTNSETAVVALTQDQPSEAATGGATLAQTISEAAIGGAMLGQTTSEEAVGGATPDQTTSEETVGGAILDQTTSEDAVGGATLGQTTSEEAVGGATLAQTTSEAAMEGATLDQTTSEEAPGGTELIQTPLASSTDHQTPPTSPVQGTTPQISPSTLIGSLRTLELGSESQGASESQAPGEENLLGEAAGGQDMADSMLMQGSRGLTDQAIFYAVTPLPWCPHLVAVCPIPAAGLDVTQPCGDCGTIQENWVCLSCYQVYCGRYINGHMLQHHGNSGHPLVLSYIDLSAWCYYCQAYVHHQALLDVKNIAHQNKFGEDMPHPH

[5] = target: Poly [ADP-ribose] polymerase 1 (Homo sapiens) (UniProt P09874); assay: Inhibition of PARP1 (unknown origin) up to 25 uM
PC-12 [6] = assay: Induction of neurite outgrowth in rat PC12 cells at 10 uM after 5 days; format: functional, cell-based
PC-12 [7] = assay: Induction of neurite outgrowth in rat PC12 cells after 5 days; format: functional, cell-based; conditions: PC-12, 120 h
PC-12 [8] = assay: Cytotoxicity against rat PC12 cells at 25 uM; format: cell-based; conditions: pc-12, 25 µM
Histone deacetylase 8 = target: T3, Histone deacetylase 8 (Homo sapiens, UniProt Q9BY41); assay: Inhibition of human recombinant HDAC8 expressed in baculovirus/sf9 cells using RHKAcKAc as substrate
T3 sequence (Q9BY41 whole entry): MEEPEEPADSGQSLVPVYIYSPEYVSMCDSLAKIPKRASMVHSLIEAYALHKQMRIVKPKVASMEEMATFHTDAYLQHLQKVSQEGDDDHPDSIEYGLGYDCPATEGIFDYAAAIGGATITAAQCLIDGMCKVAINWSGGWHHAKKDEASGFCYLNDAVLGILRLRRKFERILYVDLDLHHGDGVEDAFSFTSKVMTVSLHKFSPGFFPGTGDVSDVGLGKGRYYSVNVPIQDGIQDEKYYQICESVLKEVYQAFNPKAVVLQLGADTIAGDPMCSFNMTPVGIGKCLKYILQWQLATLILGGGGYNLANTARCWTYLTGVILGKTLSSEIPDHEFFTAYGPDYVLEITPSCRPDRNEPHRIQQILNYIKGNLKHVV

[9] = Cytotoxicity against human SH-SY5Y cells at 25 uM; format: cell-based
Vero = assay: Cytotoxicity against african green monkey Vero cells at 25 uM; format: cell-based; conditions: chlorocebus sabaeus
SH-SY5Y [10] = assay: Induction of neurite outgrowth in human SH-SY5Y cells at 10 uM after 5 days; format: functional, cell-based
PC-12 [11] = assay: Induction iof GAP-43 protein expression in rat PC12 cells at 0.1 uM after 48 hrs by Western blotting analysis; format: functional, cell-based
SH-SY5Y [12] = assay: Increase of synaptic activity in human SH-SY5Y cells after 5 days by fluorescence assay; format: functional, cell-based; conditions: 120 h
SH-SY5Y [13] = assay: Induction of neurite outgrowth in human SH-SY5Y cells after 5 days; format: functional, cell-based; conditions: 120 h
[14] = target: T4, Amyloid-beta precursor protein (Homo sapiens, UniProt P05067); assay: Inhibition of amyloid beta aggregation (unknown origin) after 4 hrs by thioflavin S assay in absence of Zn2+
Homo sapiens [15] = species on record: Homo sapiens; assay: Selectivity index, ratio of IC50 for human recombinant HDAC8 to IC50 for human recombinant HDAC6
[16] = target: T5, Polyamine deacetylase HDAC10 (Homo sapiens, UniProt Q969S8); assay: Inhibition of human recombinant HDAC10 expressed in baculovirus/sf9 cells using RHKKAc as substrate
T5 sequence (Q969S8 whole entry): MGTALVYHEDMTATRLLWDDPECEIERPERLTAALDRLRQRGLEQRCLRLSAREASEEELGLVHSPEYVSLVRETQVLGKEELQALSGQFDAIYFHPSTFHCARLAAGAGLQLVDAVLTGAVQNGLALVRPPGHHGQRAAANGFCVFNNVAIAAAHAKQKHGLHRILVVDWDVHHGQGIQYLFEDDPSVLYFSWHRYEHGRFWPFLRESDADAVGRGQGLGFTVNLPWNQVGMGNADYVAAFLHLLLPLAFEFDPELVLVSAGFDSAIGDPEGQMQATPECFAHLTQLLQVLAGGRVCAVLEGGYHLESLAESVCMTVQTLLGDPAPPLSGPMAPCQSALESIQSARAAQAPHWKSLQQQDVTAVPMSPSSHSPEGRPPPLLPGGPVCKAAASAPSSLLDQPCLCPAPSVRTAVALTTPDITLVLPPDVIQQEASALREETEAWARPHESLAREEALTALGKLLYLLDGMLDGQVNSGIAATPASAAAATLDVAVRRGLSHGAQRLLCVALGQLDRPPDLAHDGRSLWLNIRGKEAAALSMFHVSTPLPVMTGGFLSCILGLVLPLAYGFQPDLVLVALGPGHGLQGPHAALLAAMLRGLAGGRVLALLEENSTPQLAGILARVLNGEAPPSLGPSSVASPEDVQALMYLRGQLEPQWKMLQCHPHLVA

[17] = target: T4, Amyloid-beta precursor protein; assay: Inhibition of amyloid beta aggregation (unknown origin) after 4 hrs by thioflavin S assay in presence of Zn2+
Homo sapiens [18] = species on record: Homo sapiens; assay: Selectivity index, ratio of IC50 for human recombinant HDAC1 to IC50 for human recombinant HDAC6
Mus musculus [19] = assay: Antialzheimer activity in wild type learning-impaired Balb/c mouse model with hippocampal lesions assessed as increase in acetylated alpha-tubulin level in hippocampus region at 10 mg/kg, ip administered for 30 days by rotarod test
Mus musculus [20] = assay: Antialzheimer activity in wild type learning-impaired Balb/c mouse model with hippocampal lesions at 10 mg/kg, ip administered for 30 days by rotarod test relative to vehicle-treated control; conditions: Hippocampus, TDE = time-dependent effect
PC-12 [21] = assay: Inhibition of HDAC6 in rat PC12 cells assessed as induction of alpha-tubulin acetylation at 10 uM after 48 hrs by Western blotting analysis; format: cell-based
PC-12 [22] = assay: Inhibition of HDAC6 in rat PC12 cells assessed as acetylation of histone H3 at 10 uM after 48 hrs by Western blotting analysis; format: cell-based

Sequence of Poly [ADP-ribose] polymerase 1 (Homo sapiens) (P09874 whole entry): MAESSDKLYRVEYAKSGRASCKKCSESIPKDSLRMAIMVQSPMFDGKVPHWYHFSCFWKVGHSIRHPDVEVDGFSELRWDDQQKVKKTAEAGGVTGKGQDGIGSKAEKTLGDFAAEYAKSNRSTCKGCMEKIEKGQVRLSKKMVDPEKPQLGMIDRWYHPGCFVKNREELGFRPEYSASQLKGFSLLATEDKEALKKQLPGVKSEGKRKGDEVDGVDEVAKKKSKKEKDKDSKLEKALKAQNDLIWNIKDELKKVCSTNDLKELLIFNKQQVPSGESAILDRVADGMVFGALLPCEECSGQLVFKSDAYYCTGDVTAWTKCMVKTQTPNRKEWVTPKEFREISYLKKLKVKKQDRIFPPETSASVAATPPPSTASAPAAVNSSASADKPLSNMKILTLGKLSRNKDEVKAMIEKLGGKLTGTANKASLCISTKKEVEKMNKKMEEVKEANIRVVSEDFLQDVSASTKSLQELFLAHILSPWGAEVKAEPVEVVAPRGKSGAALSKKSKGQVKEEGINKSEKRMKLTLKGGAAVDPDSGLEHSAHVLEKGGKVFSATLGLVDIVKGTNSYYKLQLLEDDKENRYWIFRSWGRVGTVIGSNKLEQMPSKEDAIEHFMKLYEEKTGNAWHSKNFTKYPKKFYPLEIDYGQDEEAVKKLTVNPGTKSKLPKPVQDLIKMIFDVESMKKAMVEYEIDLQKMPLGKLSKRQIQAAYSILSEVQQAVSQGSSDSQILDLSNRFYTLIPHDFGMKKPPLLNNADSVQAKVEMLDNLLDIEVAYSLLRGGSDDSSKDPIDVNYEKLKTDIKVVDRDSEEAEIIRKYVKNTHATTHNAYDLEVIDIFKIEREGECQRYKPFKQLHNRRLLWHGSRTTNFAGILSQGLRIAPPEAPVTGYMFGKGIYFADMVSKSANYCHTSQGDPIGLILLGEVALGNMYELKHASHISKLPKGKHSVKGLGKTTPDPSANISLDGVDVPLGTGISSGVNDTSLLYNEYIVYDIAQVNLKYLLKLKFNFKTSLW
Sequence of Histone deacetylase 2 (Q92769 whole entry): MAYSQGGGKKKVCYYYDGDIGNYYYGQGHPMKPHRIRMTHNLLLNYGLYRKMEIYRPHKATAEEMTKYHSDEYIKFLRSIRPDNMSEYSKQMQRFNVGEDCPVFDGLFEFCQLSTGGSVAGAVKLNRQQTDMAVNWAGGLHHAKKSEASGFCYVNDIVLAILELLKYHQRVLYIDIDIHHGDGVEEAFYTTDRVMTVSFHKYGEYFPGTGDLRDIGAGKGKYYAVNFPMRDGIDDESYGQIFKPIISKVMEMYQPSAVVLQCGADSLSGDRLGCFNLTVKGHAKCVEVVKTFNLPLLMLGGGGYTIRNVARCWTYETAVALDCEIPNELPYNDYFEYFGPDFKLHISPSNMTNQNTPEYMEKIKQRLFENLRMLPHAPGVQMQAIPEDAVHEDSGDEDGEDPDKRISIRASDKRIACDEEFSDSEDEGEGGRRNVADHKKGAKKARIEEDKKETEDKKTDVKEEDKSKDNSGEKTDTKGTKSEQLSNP
Sequence of Histone deacetylase 1 (Q13547 whole entry): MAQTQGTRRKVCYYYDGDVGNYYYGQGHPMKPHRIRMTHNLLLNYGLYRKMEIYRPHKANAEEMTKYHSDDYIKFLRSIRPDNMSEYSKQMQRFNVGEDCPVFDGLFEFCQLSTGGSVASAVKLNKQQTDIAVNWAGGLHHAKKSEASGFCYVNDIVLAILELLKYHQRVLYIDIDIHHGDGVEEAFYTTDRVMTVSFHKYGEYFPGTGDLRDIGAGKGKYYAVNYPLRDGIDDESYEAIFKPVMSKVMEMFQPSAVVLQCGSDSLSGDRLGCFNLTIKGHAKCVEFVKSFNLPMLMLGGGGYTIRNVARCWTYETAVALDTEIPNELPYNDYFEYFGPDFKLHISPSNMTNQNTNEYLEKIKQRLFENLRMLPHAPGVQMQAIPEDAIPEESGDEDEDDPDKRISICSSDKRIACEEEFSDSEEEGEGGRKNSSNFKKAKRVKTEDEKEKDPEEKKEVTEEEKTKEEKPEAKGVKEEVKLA
T4 sequence (P05067 whole entry): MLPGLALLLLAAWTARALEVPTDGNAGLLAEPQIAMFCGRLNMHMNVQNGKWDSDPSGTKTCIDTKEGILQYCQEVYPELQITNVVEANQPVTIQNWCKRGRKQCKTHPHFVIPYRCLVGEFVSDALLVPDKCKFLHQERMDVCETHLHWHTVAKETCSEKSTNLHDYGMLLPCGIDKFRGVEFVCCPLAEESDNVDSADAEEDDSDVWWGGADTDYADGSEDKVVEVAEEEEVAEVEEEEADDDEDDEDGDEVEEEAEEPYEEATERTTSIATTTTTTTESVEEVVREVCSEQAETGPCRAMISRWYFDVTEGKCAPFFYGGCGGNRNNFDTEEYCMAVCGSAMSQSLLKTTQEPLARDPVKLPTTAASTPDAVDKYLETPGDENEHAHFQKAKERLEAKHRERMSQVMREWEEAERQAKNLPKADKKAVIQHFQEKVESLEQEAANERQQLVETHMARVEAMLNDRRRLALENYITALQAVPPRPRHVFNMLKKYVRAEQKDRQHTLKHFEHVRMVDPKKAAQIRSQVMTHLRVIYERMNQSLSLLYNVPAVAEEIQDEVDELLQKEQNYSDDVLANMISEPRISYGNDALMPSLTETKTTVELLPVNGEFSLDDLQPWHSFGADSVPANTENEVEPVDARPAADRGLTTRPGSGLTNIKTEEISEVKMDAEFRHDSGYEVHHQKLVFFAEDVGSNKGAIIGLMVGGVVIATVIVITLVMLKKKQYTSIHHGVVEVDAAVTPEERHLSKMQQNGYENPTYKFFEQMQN

Row | SMILES | IC50 (Histone deacetylase 2) [µM] | Activity (PC-12 [3]) | IC50 (Histone deacetylase 1) [µM] | IC50 (Histone deacetylase 11) [µM] | IC50 [4] [µM] | inhibition [5] | Activity (PC-12 [6]) | Activity (PC-12 [8]) | IC50 (Histone deacetylase 8) [µM] | Activity [9] | Activity (Vero) | Activity (SH-SY5Y [10]) | IC50 [14] [µM] | Ratio IC50 (Homo sapiens [15]) | IC50 [16] [µM] | IC50 [17] [µM] | Ratio IC50 (Homo sapiens [18]) | further results
1 | CCc1nc2cc(F)c(/C=C/C(=O)NO)cc2c(=O)n1CCc1ccccc1 | 5.68 | Dose-dependent effect | 1.94 | 4.68 | 0.008 | inactive | Active | Non-toxic | 0.766 | Non-toxic | Non-toxic | Active |  |  |  |  |  | EC50 (PC-12 [1]): 3.3 µM; inhibition (PC-12 [2]): Dose-dependent effect; EC50 (PC-12 [7]): 7.2 µM; Activity (PC-12 [11]): Active; EC50 (SH-SY5Y [12]): 4.3 µM; EC50 (SH-SY5Y [13]): 8.6 µM
2 | Cc1nc2ccc(/C=C/C(=O)NO)cc2c(=O)n1-c1ccccc1 | 7.48 |  | 2.09 | 5.22 | 0.032 |  |  | Non-toxic | 0.609 | Non-toxic | Non-toxic |  | > 50 | 19 | 5.14 | > 50 | 65 | 
3 | Cc1nc2cc(/C=C/C(=O)NO)ccc2c(=O)n1-c1ccccc1 | 1.61 | Dose-dependent effect |  | 1.35 | 0.088 | inactive | Active | Non-toxic | 3.88 | Non-toxic | Non-toxic | Active |  |  | 17.5 |  |  | Activity (Mus musculus [19]): Active; inhibition (PC-12 [2]): Dose-dependent effect; Activity (Mus musculus [20]): tde; Activity (PC-12 [11]): Active
4 | Cc1nc2cccc(/C=C/C(=O)NO)c2c(=O)n1-c1ccccc1 | > 10 |  | 18.6 | > 10 | 1.92 |  |  | Non-toxic | 1.06 | Non-toxic | Non-toxic |  | > 50 | < 1 | > 10 | > 50 | 10 | 
5 | CCc1nc2cc(Cc3ccc(C(=O)NO)cc3)ccc2c(=O)n1CCc1ccccc1 |  | Dose-dependent effect | 4.85 | 1.32 | 0.009 | inactive | Active | Non-toxic | 0.173 | Non-toxic | Non-toxic | Active |  |  |  |  |  | EC50 (PC-12 [1]): 3.6 µM; inhibition (PC-12 [21]): Active; inhibition (PC-12 [22]): Active; EC50 (PC-12 [7]): 9.3 µM; EC50 (SH-SY5Y [12]): 5.5 µM; EC50 (SH-SY5Y [13]): 9.8 µM
6 | CC(/C=C/C(=O)NO)=C\[C@@H](C)C(=O)c1ccc(N(C)C)cc1 |  | Dose-dependent effect |  |  |  |  | Active |  |  |  |  | Active |  |  |  |  |  | inhibition (PC-12 [21]): Active; inhibition (PC-12 [22]): Active
7 | Cc1nc2c(/C=C/C(=O)NO)cccc2c(=O)n1-c1ccccc1 | > 10 |  | 48.5 | > 10 | 0.69 |  |  | Non-toxic | 0.42 | Non-toxic | Non-toxic |  | > 50 | < 1 | 29.8 | > 50 | 70 | 
